The text below walks through data of the supplement of paper PMC11208160.
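Note: IS621 recombinase and bridge RNA in Escherichia coli cells.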

The data set in a line: recombinant barcode read abundance after kanamycin selection (control-corrected) (log10(CPM+1)); higher = more efficient recombination; sequences stand for … in AGTGCAGAGAAAATCGGCCAGTTTTCTCTGCCTGCAGTCCGCATGCCGT…AGATTTATGCAGCGGACTGCCTTTCTCCCAAAGTGATAAACCGGACAGTATCATGGACCGGTTTTCCCGGTAATCCGTATTTGCAAGGTTGGTTTCACT; site = the 11-nt target. The essentials: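 Recombination efficiency was calculated from barcode counts at recombinant junctions, normalized to counts per million, averaged and corrected by the control. Each value is given as log10(CPM+1). The constructs were Gibson-cloned oligos (promoter, target, barcode, J23119-driven first 104 bridge RNA bases) in a vector with the remaining 73 bp and a T7-inducible recombinase, co-electroporated into E. coli with a donor plasmid and plated in duplicate on chloramphenicol/ampicillin LB agar (control) or chloramphenicol/ampicillin/kanamycin with 0.1 mM IPTG.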
Take “TGCGACTCTTGGGTTCTAACCTGTTGCCT (site TGAGACTCTAG)”: the “recombinant barcode read abundance (log10)” value is 1.47.
In the case of “TGCGACTCTTGGGTTCTAACCTGTTGCCT (site TGCGACTCTAG)” it was 1.5.
With “TGCGACTCTTGGGTTCTAACCTGTTGCCT (site TGGGACTCTAG)”, the “recombinant barcode read abundance (log10)” value is 0.0561.
In the case of “TGCGACTCTTGGGTTCTAACCTGTTGCCT (site TGTGACTCTAG)” it was 0.0576.
For “TGCGTAACTTGGGTTCTAACCTGTTGCCA (site GAACCTCCTAT)”, the “recombinant barcode read abundance (log10)” value came to 0.0676.
On to “TGCGTAACTTGGGTTCTAACCTGTTGCCA (site TGCGTAACTTG)”, for which the “recombinant barcode read abundance (log10)” value was 0.104.
To “TGCTCTACTTGGGTTCTAACCTGTTGCTG (site TGCTCTACTCA)” belongs 0.00915; to “TGCTCTACTTGGGTTCTAACCTGTTGCTG (site TGTTCTACTCG)”, 0.114.
As for “TGGACTTCTTGGGTTCTAACCTGTTGCTT (site TGGAATTCTAA)”, the “recombinant barcode read abundance (log10)” value was determined as 0.0677.
In the case of “TGGACTTCTTGGGTTCTAACCTGTTGCTT (site TGGACTTCTAA)” it was 0.0981; in that of “TGGAGCCCTTGGGTTCTAACCTGTTGCTT (site TGGAGCCCTAA)”, 0.463.
As for “TGGAGCCCTTGGGTTCTAACCTGTTGCTT (site TGGAGTCCTAA)”, the “recombinant barcode read abundance (log10)” value amounted to 0.136.
In the case of “TGGAGTACTTGGGTTCTAACCTGTTGCTT (site TGGAGTACTAA)” it was 1.02; in that of “TGGAGTACTTGGGTTCTAACCTGTTGCTT (site TGTAGTACTAG)”, 0.0535; in that of “TGGATTCCTTGGGTTCTAACCTGTTGCCT (site TGGATTCCTAG)”, 0.223.
For “TGGATTCCTTGGGTTCTAACCTGTTGCCT (site TGGATTGCTAG)”, the “recombinant barcode read abundance (log10)” value was found to be 0.392.
With “TGGCAATCTTGGGTTCTAACCTGTTGCCT (site ACCTCGGCTCA)”, the “recombinant barcode read abundance (log10)” value is 0.556.
To “TGGCAATCTTGGGTTCTAACCTGTTGCCT (site TGGCAATCTAG)” belongs 0.257.
To “TGGCCCTCTTGGGTTCTAACCTGTTGCTA (site TGGCCCTCTAA)” belongs 1.1; to “TGGCCCTCTTGGGTTCTAACCTGTTGCTA (site TGGCCCTCTCA)”, 0.0705; to “TGGCCCTCTTGGGTTCTAACCTGTTGCTA (site TGGCCCTCTGA)”, 0.0109.
To “TGGCCCTCTTGGGTTCTAACCTGTTGCTA (site TGGCCCTCTTA)” belongs 2.03; to “TGGCCCTCTTGGGTTCTAACCTGTTGCTG (site TGGCCCTCTAA)”, 0.784; to “TGGCCCTCTTGGGTTCTAACCTGTTGCTG (site TGGCCCTCTCA)”, 2.31.
For the sequence “TGGCCCTCTTGGGTTCTAACCTGTTGCTG (site TGGCCCTCTGA)”, the “recombinant barcode read abundance (log10)” value came out at 0.0444.
To “TGGCCCTCTTGGGTTCTAACCTGTTGCTG (site TGGCCCTCTTA)” belongs 0.111.
Take “TGGCCTTCTTGGGTTCTAACCTGTTGCCT (site TAGCCTTCTAG)”: the “recombinant barcode read abundance (log10)” value is 0.0963.
In the case of “TGGCCTTCTTGGGTTCTAACCTGTTGCCT (site TCGCCTTCTAG)” it was 0.0688.
Turning to “TGGCCTTCTTGGGTTCTAACCTGTTGCCT (site TGGCCTTCTAG)”, the “recombinant barcode read abundance (log10)” value came to 0.781.
On to “TGGCCTTCTTGGGTTCTAACCTGTTGCCT (site TTGCCTTCTAG)”, for which the “recombinant barcode read abundance (log10)” value stood at 0.0528.
To “TGGCGAGCTTGGGTTCTAACCTGTTGCCT (site TGGCCTGCTAG)” belongs 0.152; to “TGGCGAGCTTGGGTTCTAACCTGTTGCCT (site TGGCGAGCTAG)”, 1.02.
With “TGGCGCTCTTGGGTTCTAACCTGTTGCCT (site TGACGCTCTAG)”, the “recombinant barcode read abundance (log10)” value is 0.855.
Take “TGGCGCTCTTGGGTTCTAACCTGTTGCCT (site TGCCGCTCTAG)”: the “recombinant barcode read abundance (log10)” value was determined as 0.
To “TGGCGCTCTTGGGTTCTAACCTGTTGCCT (site TGGCGCTCTAG)” belongs 0.457.
On to “TGGCGCTCTTGGGTTCTAACCTGTTGCCT (site TGTCGCTCTAG)”, for which the “recombinant barcode read abundance (log10)” value was determined as 0.0369.
For the sequence “TGGCTATCTTGGGTTCTAACCTGTTGCCT (site CGGCTATCTAG)”, the “recombinant barcode read abundance (log10)” value amounted to 0.00906.
In the case of “TGGCTATCTTGGGTTCTAACCTGTTGCCT (site TGGCTATCTAG)” it was 0.187; in that of “TGGCTCCCTTGGGTTCTAACCTGTTGCCG (site TGGCTCCCTCC)”, 0.077.
As for “TGGCTCCCTTGGGTTCTAACCTGTTGCCG (site TGGCTCCCTCG)”, the “recombinant barcode read abundance (log10)” value worked out at 1.35.
As for “TGGCTCCCTTGGGTTCTAACCTGTTGCGG (site TGGCTCCCTCC)”, the “recombinant barcode read abundance (log10)” value turned out to be 0.188.
In the case of “TGGCTCCCTTGGGTTCTAACCTGTTGCGG (site TGGCTCCCTCG)” it was 0.12.
In the case of “TGGGACTCTTGGGTTCTAACCTGTTGCCA (site TCGGACACTTG)” it was 0.328; in that of “TGGGACTCTTGGGTTCTAACCTGTTGCCA (site TGGGACTCTTG)”, 2.29.
“TGGGATCCTTGGGTTCTAACCTGTTGCAT (site AGGGGTCCTAT)”: the “recombinant barcode read abundance (log10)” value came out at 0.0813.
As for “TGGGATCCTTGGGTTCTAACCTGTTGCAT (site TGGGATCCTAT)”, the “recombinant barcode read abundance (log10)” value was 1.73.
In the case of “TGGGGCCCTTGGGTTCTAACCTGTTGCCT (site TGGGGCCCTAG)” it was 1.66; in that of “TGGGGCCCTTGGGTTCTAACCTGTTGCCT (site TGGTGCCCTAC)”, 0.156; in that of “TGGGGTCCTTGGGTTCTAACCTGTTGCCT (site TGGAGTCCTAG)”, 1.52.
In the case of “TGGGGTCCTTGGGTTCTAACCTGTTGCCT (site TGGCGTCCTAG)” it was 0.0786.
To “TGGGGTCCTTGGGTTCTAACCTGTTGCCT (site TGGGGTCCTAG)” belongs 2.33; to “TGGGGTCCTTGGGTTCTAACCTGTTGCCT (site TGGTGTCCTAG)”, 0.217.
Regarding “TGGGTCCCTTGGGTTCTAACCTGTTGCCT (site TGAGTCCCTAG)”, the “recombinant barcode read abundance (log10)” value turned out to be 2.14.
In the case of “TGGGTCCCTTGGGTTCTAACCTGTTGCCT (site TGCGTCCCTAG)” it was 0.102; in that of “TGGGTCCCTTGGGTTCTAACCTGTTGCCT (site TGGGTCCCTAG)”, 3; in that of “TGGGTCCCTTGGGTTCTAACCTGTTGCCT (site TGTGTCCCTAG)”, 0.0764.
In the case of “TGGTACCCTTGGGTTCTAACCTGTTGCCT (site TGGTACCCTAG)” it was 1.64; in that of “TGGTACCCTTGGGTTCTAACCTGTTGCCT (site TGTTACCCTAG)”, 0.126; in that of “TGGTATTCTTGGGTTCTAACCTGTTGCCT (site TGGTATACTAG)”, 0.0539.
With “TGGTATTCTTGGGTTCTAACCTGTTGCCT (site TGGTATCCTAG)”, the “recombinant barcode read abundance (log10)” value was 0.113.
In the case of “TGGTATTCTTGGGTTCTAACCTGTTGCCT (site TGGTATGCTAG)”, the “recombinant barcode read abundance (log10)” value came to 0.11.
Turning to “TGGTATTCTTGGGTTCTAACCTGTTGCCT (site TGGTATTCTAG)”, the “recombinant barcode read abundance (log10)” value amounted to 0.373.
As to “TGGTCCGCTTGGGTTCTAACCTGTTGCCT (site TGGTACGCTAG)”, the “recombinant barcode read abundance (log10)” value was determined as 0.257.
To “TGGTCCGCTTGGGTTCTAACCTGTTGCCT (site TGGTCCGCTAG)” belongs 1.58; to “TGGTCCGCTTGGGTTCTAACCTGTTGCCT (site TGGTGCGCTAG)”, 0.0483; to “TGGTCCGCTTGGGTTCTAACCTGTTGCCT (site TGGTTCGCTAG)”, 0.243.
On to “TGGTGCCCTTGGGTTCTAACCTGTTGCGT (site TGGGGCCCTAG)”, for which the “recombinant barcode read abundance (log10)” value was found to be 0.122.
To “TGGTGCCCTTGGGTTCTAACCTGTTGCGT (site TGGTGCCCTAC)” belongs 1.83; to “TGGTTACCTTGGGTTCTAACCTGTTGCCT (site TGGTTACCTAG)”, 1.17.
In the case of “TGGTTACCTTGGGTTCTAACCTGTTGCCT (site TGTTTAACTAG)” it was 0.0377; in that of “TGTACGTCTTGGGTTCTAACCTGTTGCTT (site TGTACGACTAG)”, 0.0847.
For the sequence “TGTACGTCTTGGGTTCTAACCTGTTGCTT (site TGTACGTCTAA)”, the “recombinant barcode read abundance (log10)” value was 0.326.
In the case of “TGTAGAGCTTGGGTTCTAACCTGTTGCAG (site TGTAGAGCTCT)”, the “recombinant barcode read abundance (log10)” value came to 0.872.
Regarding “TGTAGAGCTTGGGTTCTAACCTGTTGCAG (site TGTTGAGCTCT)”, the “recombinant barcode read abundance (log10)” value amounted to 0.0298.
For “TGTAGCACTTGGGTTCTAACCTGTTGCAC (site TGTAGCACTGT)”, the “recombinant barcode read abundance (log10)” value was found to be 0.0233.
To “TGTAGCACTTGGGTTCTAACCTGTTGCAC (site TGTCGCACTCT)” belongs 0.159; to “TGTAGTCCTTGGGTTCTAACCTGTTGCAT (site TGTAGTCCTAA)”, 0.232.
